Data as given in PubChem BioAssay (NCI).
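Grown in 96-well plates, cells were treated for 48 hours with each compound at five concentrations. Insufficient inhibition: endpoint recorded as highest concentration tested. The concentration for 50% growth inhibition is given as GI50. At the TGI there is no net growth.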

Experiments:
Assay in all cases: DTP human tumour cell line panel, 48 h
[1] = test system: 786-0 renal
[2] = test system: ACHN renal
[3] = test system: MOLT-4 leukemia
[4] = test system: NCI/ADR-RES ovarian
[5] = test system: OVCAR-5 ovarian
[6] = test system: SW-620 colon
[7] = test system: SF-295 CNS
[8] = test system: HOP-92 NSCLC

| SMILES | GI50 [1] [µM] | TGI [1] [µM] | GI50 [2] [µM] | TGI [2] [µM] | GI50 [3] [µM] | TGI [3] [µM] | GI50 [4] [µM] | TGI [4] [µM] | GI50 [5] [µM] | TGI [5] [µM] | GI50 [6] [µM] | TGI [6] [µM] | TGI [7] [µM] | GI50 [8] [µM] | TGI [8] [µM] | GI50 [7] [µM] |
| --- | --- | --- | --- | --- | --- | --- | --- | --- | --- | --- | --- | --- | --- | --- | --- | --- |
| OCc1ccc(N(CCN2CCCC2)Cc2ccc(F)cc2)cc1Cl | 21 | 66 | 21.8 | 72.3 | 25.2 | 62.7 | 18.2 | 44.3 | 16 | 40.5 | 16.7 | 32.9 | – | – | – | – |
| COc1ccc(/C=C/NC=O)cc1 | – | > 100 | – | > 100 | – | > 100 | – | > 100 | – | > 100 | – | > 100 | > 100 | – | – | – |
| O=C(COc1cccc(/C=C2\CSc3ccccc3C2=O)c1)c1ccc(Cl)cc1 | 1.4 | 2.89 | 1.78 | 3.5 | 1.07 | 3.44 | 2.66 | 7.33 | 1.85 | 4.08 | 0.231 | 0.606 | 3.44 | 3.27 | 44.2 | 1.71 |
| COc1ccc(N(C)c2c3ccccc3nc3[nH]c4ccccc4c23)cc1 | 0.444 | 1.9 | 0.558 | 2.16 | 0.0883 | 50 | 2.95 | 9.91 | 0.917 | 4.57 | 0.582 | 26.4 | 2.59 | 1.07 | 4.49 | 0.387 |
| NC1CCC(N[C@@H]2C[C@H]2c2ccccc2)CC1 (stereo partly specified) | > 100 | > 100 | > 100 | > 100 | 60 | > 100 | > 100 | > 100 | > 100 | > 100 | > 100 | > 100 | > 100 | 5.47 | > 100 | > 100 |
| O=[N+]([O-])c1ccc2nc3ccccc3cc2c1 | – | 14 | – | 14.9 | – | – | – | 3.47 | – | 7.06 | – | 14.3 | – | – | 18.2 | – |
| COc1ccc2c(c1)/C(=N/OC(C)=O)c1c-2c(=O)[nH]c2ccccc12 | 15.9 | 43.6 | 14.2 | 28.2 | 4.28 | 24.6 | 2.83 | 17.9 | 11.5 | 24.5 | 14.2 | 30.3 | 48 | 11.1 | 38.3 | 18.1 |
| COc1cc(/C=C2\C(=O)Nc3cccc(Cl)c32)cc(OC)c1OC | 41.8 | > 100 | 53.2 | > 100 | 0.142 | 1.34 | > 100 | > 100 | 46.4 | > 100 | > 100 | > 100 | > 100 | 23.9 | 93.2 | > 100 |
| COc1ccc(-c2csc(NC(=O)c3cc(O)c(O)c(O)c3)n2)cc1 | 11 | > 33.3 | 3.76 | > 33.3 | 2.3 | > 33.3 | 11.2 | > 33.3 | > 33.3 | > 33.3 | 5.69 | > 33.3 | > 33.3 | 5.24 | 26.2 | 16.1 |
| CCCN(CCSSCCNc1nc(N(C)O)nc(N(C)O)n1)c1nc(N(C)O)nc(N(C)O)n1 | 3.67 | > 100 | 3.92 | > 100 | 3.72 | > 100 | 6.48 | > 100 | > 100 | > 100 | 6.72 | > 100 | 58.3 | 6.1 | > 100 | 3.56 |
| Cn1c(=O)c(Oc2ccccc2)cc2cnc(NC3CCOCC3)nc21 | > 25 | > 25 | > 25 | > 25 | > 25 | > 25 | > 25 | > 25 | > 25 | > 25 | > 25 | > 25 | > 25 | > 25 | > 25 | > 25 |
| CN(C)CCCn1c2nc(=O)[nH]c(=O)c-2nc2cc(Cl)c(Cl)cc21 | 8.79 | 23.2 | 3.46 | 11.8 | 4.35 | 22.8 | 7.9 | > 100 | 14.2 | 30.4 | 2.58 | 11.7 | – | 12.2 | 25.8 | – |
| CNCCCNCCCN1C(=O)c2ccc3c4c(ccc(c24)C1=O)C(=O)N(CCCNCc1ccccc1OC)C3=O | 1.27 | 4.56 | 0.5 | 3.96 | 0.534 | 3.55 | 12.1 | 71.1 | 1.25 | 4.14 | 0.365 | 5.12 | 2.39 | 2.13 | 8.05 | 0.894 |
| C=C1C[C@@]2(C)C(CC[C@]3(C)C2CC=C2C4CC(C)(C)C[C@@H](OC(=O)/C(C)=C\C)[C@]4(C(=O)O)CC[C@]23C)C(C)(C)C1=O (stereo partly specified) | 2 | 3.9 | 2.04 | 4.12 | 2.91 | 24.8 | 3.45 | 33.4 | 3.17 | 10.3 | 2.74 | 9.31 | 11.1 | 2.34 | 7.15 | 2.95 |
| NC(CC1=CCC=CC1)C(=O)O (stereo unspecified) | – | > 100 | – | > 100 | – | > 100 | – | – | – | > 100 | – | > 100 | > 100 | – | > 100 | – |
| COc1ccccc1/C=C/C(=O)/C=C/c1ccccc1OC | 1.85 | 3.59 | 1.91 | 3.49 | 2.4 | 9.06 | 2.53 | 8.98 | 3.16 | 6.47 | 1.51 | 3.37 | 10.5 | 2.1 | 5.04 | 3.74 |
| C=C1C(=O)O[C@H]2[C@H]1CC/C(Cn1cc(-c3cc(C)c(C)cc3C)nn1)=C\CC[C@@]1(C)O[C@@H]21 | 1.5 | 3.18 | 1.07 | 2.34 | 2.38 | 7.34 | 2.51 | 12.9 | 1.74 | 4.38 | 0.424 | 1.54 | 20.7 | 0.436 | 1.68 | 6.44 |
| Cc1[nH]nc2c1N=C(c1ccccc1Cl)c1cc([N+](=O)[O-])ccc1N2 | 1.35 | > 17.1 | 1.07 | > 15.3 | 14.8 | > 25 | 0.728 | > 25 | > 25 | > 25 | 0.14 | > 25 | – | > 18.9 | > 25 | 0.256 |

| SMILES | GI50 [1] [µM] | TGI [1] [µM] | GI50 [2] [µM] | TGI [2] [µM] | GI50 [3] [µM] | TGI [3] [µM] | GI50 [4] [µM] | TGI [4] [µM] | GI50 [5] [µM] | TGI [5] [µM] | GI50 [6] [µM] | TGI [6] [µM] | TGI [7] [µM] | GI50 [8] [µM] | TGI [8] [µM] | GI50 [7] [µM] |
| --- | --- | --- | --- | --- | --- | --- | --- | --- | --- | --- | --- | --- | --- | --- | --- | --- |
| O=C1NN(c2ccccc2)C(=O)/C1=C/c1ccc(Br)o1 | 19.8 | 53.2 | 13.3 | > 49.4 | 6.06 | 24.6 | 15.8 | 54.8 | 14.2 | 30.6 | 4.85 | 24.5 | 2.56 | – | 3.33 | – |
| NC1=Nc2cc(OCCCN3Cc4ccccc4C3)c(OCC3CC3)cc2C12CCCC2 | 1.69 | 3.77 | 3.44 | 11.9 | 2.17 | 6.22 | 2.91 | 12 | 5.99 | 19.1 | 2.07 | 4.88 | 3.42 | 0.718 | 3.14 | 1.64 |
| C=CC1=C(C)C2=NC1=CC1=NC(=CC3=C(C)C4=C(O)C(C(=O)OC)C(=C5NC(=C2)C(C)C5CCC(=O)OC)C4=N3)C(CC)=C1C (stereo unspecified) | – | > 100 | – | > 100 | – | – | – | – | – | > 100 | – | > 100 | > 100 | – | > 100 | – |
| COc1ccc(-c2cc(=O)c3c(OC)c(OC)c(OC)c(OC)c3o2)c(OC)c1 | – | > 100 | – | 84.8 | – | 86.1 | – | 67.3 | – | > 100 | – | > 100 | 46 | – | 55.3 | – |
| O=C1CCS/C(=N\S(=O)(=O)c2ccc(N3N=C4c5ccccc5CC4C3c3cccs3)cc2)N1C(=O)c1ccccc1 (stereo unspecified) | 14.1 | 27.2 | 5.18 | 18.5 | 5.04 | 77.9 | 32.9 | > 100 | 25.8 | 54.3 | 13.1 | > 100 | > 100 | 25.4 | > 100 | 32.7 |
| Cc1cc(N(CCCl)CCCl)ccc1/C=N/NC(=O)Cc1cc(=O)oc2cc(O)ccc12 | – | 59.7 | – | 40.3 | – | 50.4 | – | > 100 | – | 93.7 | – | 66.9 | 50.8 | – | > 100 | – |
| O=C(Nc1ccccc1)Nc1cccc(Oc2nnc(Cl)c3ccccc23)c1 | 3.6 | 8.18 | 3.47 | 18.7 | 2.6 | 11.4 | 2.63 | 6.39 | 5.61 | 15.3 | 8.41 | > 25 | 5.63 | 3.09 | 11.3 | 2.07 |
| O=C(CC1C=CCS1(=O)=O)NCc1ccccc1 (stereo unspecified) | – | > 100 | – | > 100 | – | > 100 | – | > 100 | – | > 100 | – | > 100 | > 100 | – | > 100 | – |
| CCNCCCn1c2c(c3ccc([N+](=O)[O-])cc3c1=O)C(=O)c1cc(OC)cnc1-2 | 0.0406 | 0.31 | 0.0313 | 0.144 | 0.029 | 0.25 | 0.0559 | 0.689 | 0.176 | 0.675 | 0.0653 | 3.57 | 0.496 | 0.471 | 17.4 | 0.0421 |
| COc1ccccc1-c1cc(=O)c2ccc(OC)c(OC)c2o1 | – | > 100 | – | > 100 | – | > 100 | – | > 100 | – | > 100 | – | > 100 | > 100 | – | > 100 | – |
| Cc1nc(C(N)=S)sc1C(=O)C/C(=N/N)C(=O)Nc1ccc(Cl)cc1 | – | > 100 | – | > 100 | – | > 100 | – | > 100 | – | > 100 | – | > 100 | > 100 | – | – | – |
| OCC(O)C(O)C(O)/C=N/Nc1nc2ccccc2nc1-c1ccccc1 (stereo unspecified) | > 100 | > 100 | > 100 | > 100 | – | – | 45.9 | > 100 | > 100 | > 100 | > 100 | > 100 | > 100 | 60.1 | > 100 | > 100 |
| O=C1CS/C(=N\S(=O)(=O)c2ccc(N3N=C4c5ccccc5CC4C3c3ccc(Cl)cc3)cc2)N1c1ccccc1 (stereo unspecified) | 46.6 | > 100 | 27.7 | 66.5 | 17.2 | 40.7 | – | – | – | – | 37.4 | > 100 | 98.7 | 27 | > 100 | 35.8 |
| Cc1cc(=O)oc2cc(OS(C)(=O)=O)ccc12 | – | > 100 | – | > 100 | – | – | – | > 100 | – | > 100 | – | > 100 | > 100 | – | > 100 | – |
| N#Cc1c(N)nc(N2CCOCC2)c(C#N)c1-c1ccccc1Cl | 62.1 | > 100 | – | – | 34.2 | > 100 | 40.2 | > 100 | 26.4 | > 100 | > 100 | > 100 | > 100 | 16.9 | 72.4 | 38.5 |
| CCSc1nnc(-c2ccc3ccccc3c2O)n1-c1ccc(Cl)cc1 | 60.3 | > 100 | 4.99 | > 100 | – | – | 4.45 | > 100 | > 100 | > 100 | 4.28 | > 100 | > 100 | 9.23 | > 100 | 4.24 |
| Cc1ccc(Sc2sc(-c3ccccc3)nc2[P+](c2ccccc2)(c2ccccc2)c2ccccc2)cc1 | 0.381 | 1.45 | 0.268 | 0.933 | 0.363 | 1.59 | – | – | 0.4 | 1.45 | 0.319 | 1.26 | 0.722 | 0.186 | 0.563 | 0.243 |
